This note sets out measurements from US11173151B2, “Substituted triazole derivatives and uses thereof” (BAYER AKTIENGESELLSCHAFT, priority 2017, dated 2021).

Structures are written as SMILES. Structures can show the parent of a compound that is named as a salt.

The term IC50 denotes the point on the concentration scale where inhibition reaches its midpoint.

The target in test [1] is T1, human V1a receptor (Homo sapiens, UniProt P37288).
T1 construct: expressed in transfected cells; host or cells: CHO K1 (ATCC), also stably transfected with a modified aequorin
T1 sequence (P37288 whole entry): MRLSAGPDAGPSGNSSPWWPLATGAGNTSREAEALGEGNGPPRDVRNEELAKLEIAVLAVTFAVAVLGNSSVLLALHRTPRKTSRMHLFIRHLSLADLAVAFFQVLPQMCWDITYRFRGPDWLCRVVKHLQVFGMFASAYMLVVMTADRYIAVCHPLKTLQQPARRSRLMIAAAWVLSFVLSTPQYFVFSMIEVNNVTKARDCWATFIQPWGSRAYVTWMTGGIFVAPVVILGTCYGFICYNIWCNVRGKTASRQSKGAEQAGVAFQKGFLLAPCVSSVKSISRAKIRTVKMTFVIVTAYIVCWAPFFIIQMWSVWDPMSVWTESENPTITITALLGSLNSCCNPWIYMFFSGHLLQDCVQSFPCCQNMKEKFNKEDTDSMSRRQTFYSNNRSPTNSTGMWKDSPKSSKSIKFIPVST
The test can be described thus: Cellular in vitro assay for determining vasopressin receptor activity, V1a receptor cell line (CHO, aequorin luminescence). It is filed as cell-based. Particulars: for IC50: CHO cell line transfected with human V1a receptor, [Arg]-vasopressin at EC50 concentration, read-out: IC50 hV1a; for ratio IC50 hV2/hV1a: selectivity ratio IC50 hV2 / IC50 hV1a. The method in brief: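 Cells were plated the day before in medium containing 5 μg/ml coelenterazine and kept at 37° C. Compounds at various concentrations were then added for 10 minutes. Next, [Arg]-vasopressin at EC50 was applied and light output recorded at once, yielding IC50.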

Test [2] has as its target T2, human V2 receptor (Homo sapiens, UniProt P30518).
T2 construct: expressed in transfected cells; host or cells: CHO K1 (ATCC) expressing firefly luciferase under a CRE-responsive promoter
The test can be described thus: Cellular in vitro assay for determining vasopressin receptor activity, V2 receptor cell line (CHO, CRE-luciferase). Type of test: cell-based. Particulars: CHO cell line transfected with human V2 receptor; [Arg8]-vasopressin at EC50 concentration; read-out: IC50 hV2.

T2 sequence (P30518 whole entry): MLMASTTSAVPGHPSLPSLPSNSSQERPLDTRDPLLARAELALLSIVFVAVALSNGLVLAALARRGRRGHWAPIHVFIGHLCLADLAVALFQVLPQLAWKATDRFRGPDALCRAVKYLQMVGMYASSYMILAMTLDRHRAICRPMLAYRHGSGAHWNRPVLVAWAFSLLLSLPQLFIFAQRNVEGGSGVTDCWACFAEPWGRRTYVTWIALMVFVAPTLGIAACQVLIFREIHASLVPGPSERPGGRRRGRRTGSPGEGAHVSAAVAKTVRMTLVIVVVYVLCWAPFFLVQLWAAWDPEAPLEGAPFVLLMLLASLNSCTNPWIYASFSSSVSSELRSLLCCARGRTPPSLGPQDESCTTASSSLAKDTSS

As for `O=C(c1ncccc1-n1cnc(Cn2nc(-c3ccc(Cl)cc3)n(C[C@H](O)C(F)(F)F)c2=O)n1)N1CCCCC1` [Example 445, 5-(4-Chlorophenyl)-2-({1-[2-(piperidin-1-ylcarbonyl)pyridin-3-yl]-1H-1,2,4-triazol-3-yl}methyl)-4-[(2S)-3,3,3-trifluoro-2-hydroxypropyl]-2,4-dihydro-3H-1,2,4-triazol-3-one], in test [1], the IC50 is 20 nM and the “ratio IC50 hV2/hV1a” value stood at 182.5. The IC50 in test [2] amounted to 3650 nM.

Take `O=C(c1ncccc1-n1cnc(Cn2nc(-c3ccc(Cl)cc3)n(C[C@H](O)C(F)(F)F)c2=O)n1)N1CCOCC1` [Example 446, 5-(4-Chlorophenyl)-2-({1-[2-(morpholin-4-ylcarbonyl)pyridin-3-yl]-1H-1,2,4-triazol-3-yl}methyl)-4-[(2S)-3,3,3-trifluoro-2-hydroxypropyl]-2,4-dihydro-3H-1,2,4-triazol-3-one]: in test [1], the IC50 came out at 47 nM and the “ratio IC50 hV2/hV1a” value is given as 457.4. Besides, in test [2], the IC50 was 21500 nM.

In the case of `O=C(NC1(C(F)(F)F)CC1)c1ncccc1-n1cnc(Cn2nc(-c3ccc(Cl)cc3)n(C[C@H](O)C(F)(F)F)c2=O)n1` [Example 447, 3-[3-({3-(4-Chlorophenyl)-5-oxo-4-[(2S)-3,3,3-trifluoro-2-hydroxypropyl]-4,5-dihydro-1H-1,2,4-triazol-1-yl}methyl)-1H-1,2,4-triazol-1-yl]-N-[1-(trifluoromethyl)cyclopropyl]pyridine-2-carboxamide], the IC50 stood at 29.5 nM in test [1] and 815 nM in test [2]. Moreover, in test [1], the “ratio IC50 hV2/hV1a” value was determined as 27.6.

For `O=C(c1ncccc1-n1cnc(Cn2nc(-c3ccc(Cl)cc3)n(C[C@H](O)C(F)(F)F)c2=O)n1)N1CCC[C@H]1C(F)(F)F` [Example 450, 5-(4-Chlorophenyl)-4-[(2S)-3,3,3-trifluoro-2-hydroxypropyl]-2-{[1-(2-{[(2S)-2-(trifluoromethyl)pyrrolidin-1-yl]carbonyl}pyridin-3-yl)-1H-1,2,4-triazol-3-yl]methyl}-2,4-dihydro-3H-1,2,4-triazol-3-one], in test [1], the IC50 came to 39.5 nM and the “ratio IC50 hV2/hV1a” value was found to be 31.6. Besides, in test [2], the IC50 came out at 1250 nM.

For the molecule `O=C(c1ncccc1-n1cnc(Cn2nc(-c3ccc(Cl)cc3)n(C[C@H](O)C(F)(F)F)c2=O)n1)N1CCC[C@@H]1C(F)(F)F` [Example 451, 5-(4-Chlorophenyl)-4-[(2S)-3,3,3-trifluoro-2-hydroxypropyl]-2-{[1-(2-{[(2R)-2-(trifluoromethyl)pyrrolidin-1-yl]carbonyl}pyridin-3-yl)-1H-1,2,4-triazol-3-yl]methyl}-2,4-dihydro-3H-1,2,4-triazol-3-one], in test [1], the IC50 turned out to be 110 nM and the “ratio IC50 hV2/hV1a” value was found to be 9.3. Moreover, the IC50 in test [2] was 1020 nM.

Take `O=C(c1ncccc1-n1cnc(Cn2nc(-c3ccc(Cl)cc3)n(C[C@H](O)C(F)(F)F)c2=O)n1)N1CCS(=O)(=O)CC1` [Example 452, 5-(4-Chlorophenyl)-2-[(1-{2-[(1,1-dioxidothiomorpholin-4-yl)carbonyl]pyridin-3-yl}-1H-1,2,4-triazol-3-yl)methyl]-4-[(2S)-3,3,3-trifluoro-2-hydroxypropyl]-2,4-dihydro-3H-1,2,4-triazol-3-one]: in test [1], the IC50 was determined as 265 nM and the “ratio IC50 hV2/hV1a” value is recorded as 22.3. Further, in test [2], the IC50 stood at 5900 nM.

With `CC1(C)CNCCN1C(=O)c1ncccc1-n1cnc(Cn2nc(-c3ccc(Cl)cc3)n(C[C@H](O)C(F)(F)F)c2=O)n1` [Example 453, 5-(4-Chlorophenyl)-2-[(1-{2-[(2,2-dimethylpiperazin-1-yl)carbonyl]pyridin-3-yl}-1H-1,2,4-triazol-3-yl)methyl]-4-[(2S)-3,3,3-trifluoro-2-hydroxypropyl]-2,4-dihydro-3H-1,2,4-triazol-3-one-Hydrochloric Acid Salt], the figures for the IC50 in test [1] and in test [2] were 175 nM and 32000 nM, respectively. Moreover, the “ratio IC50 hV2/hV1a” value in test [1] stood at 182.9.

Regarding `CN(CC1CC1)C(=O)c1ncccc1-n1cnc(Cn2nc(-c3ccc(Cl)cc3)n(C[C@H](O)C(F)(F)F)c2=O)n1` [Example 454, 3-[3-({3-(4-Chlorophenyl)-5-oxo-4-[(2S)-3,3,3-trifluoro-2-hydroxypropyl]-4,5-dihydro-1H-1,2,4-triazol-1-yl}methyl)-1H-1,2,4-triazol-1-yl]-N-(cyclopropylmethyl)-N-methylpyridine-2-carboxamide], the IC50 in test [1] worked out at 12 nM; in test [2] it was 4050 nM. Moreover, the “ratio IC50 hV2/hV1a” value in test [1] was found to be 337.5.

`CC1(NC(=O)c2ncccc2-n2cnc(Cn3nc(-c4ccc(Cl)cc4)n(C[C@H](O)C(F)(F)F)c3=O)n2)CC1` [Example 455, 3-[3-({3-(4-Chlorophenyl)-5-oxo-4-[(2S)-3,3,3-trifluoro-2-hydroxypropyl]-4,5-dihydro-1H-1,2,4-triazol-1-yl}methyl)-1H-1,2,4-triazol-1-yl]-N-(1-methylcyclopropyl)pyridine-2-carboxamide]: in test [1], the IC50 is 4.4 nM and the “ratio IC50 hV2/hV1a” value came out at 272.7. Besides, the IC50 in test [2] was 1200 nM.

Take `O=C(NCC(F)(F)F)c1ncccc1-n1cnc(Cn2nc(-c3ccc(Cl)cc3)n(C[C@@H](O)C(F)(F)F)c2=O)n1` [Example 457, 3-[3-({3-(4-Chlorophenyl)-5-oxo-4-[(2R)-3,3,3-trifluoro-2-hydroxypropyl]-4,5-dihydro-1H-1,2,4-triazol-1-yl}methyl)-1H-1,2,4-triazol-1-yl]-N-(2,2,2-trifluoroethyl)pyridine-2-carboxamide]: in test [1], the IC50 turned out to be 210 nM and the “ratio IC50 hV2/hV1a” value came to 25.2. Further, in test [2], the IC50 was 5300 nM.

Take `O=C(NC1CC1)c1ncccc1-n1cnc(Cn2nc(-c3ccc(Cl)cc3)n(C[C@@H](O)C(F)(F)F)c2=O)n1` [Example 458, 3-[3-({3-(4-Chlorophenyl)-5-oxo-4-[(2R)-3,3,3-trifluoro-2-hydroxypropyl]-4,5-dihydro-1H-1,2,4-triazol-1-yl}methyl)-1H-1,2,4-triazol-1-yl]-N-cyclopropylpyridine-2-carboxamide]: in test [1], the IC50 is 100 nM and the “ratio IC50 hV2/hV1a” value is reported as 60.5. In test [2], the IC50 worked out at 6050 nM.

Regarding `O=C(NCC1CC1)c1ncccc1-n1cnc(Cn2nc(-c3ccc(Cl)cc3)n(C[C@@H](O)C(F)(F)F)c2=O)n1` [Example 459, 3-[3-({3-(4-Chlorophenyl)-5-oxo-4-[(2R)-3,3,3-trifluoro-2-hydroxypropyl]-4,5-dihydro-1H-1,2,4-triazol-1-yl}methyl)-1H-1,2,4-triazol-1-yl]-N-(cyclopropylmethyl)pyridine-2-carboxamide], in test [1], the IC50 is 210 nM and the “ratio IC50 hV2/hV1a” value worked out at 21.0. Also, in test [2], the IC50 stood at 4400 nM.

As for `O=C(NC1CC1(F)F)c1ncccc1-n1cnc(Cn2nc(-c3ccc(Cl)cc3)n(C[C@@H](O)C(F)(F)F)c2=O)n1` (stereo partly drawn) [Example 460, 3-[3-({3-(4-Chlorophenyl)-5-oxo-4-[(2R)-3,3,3-trifluoro-2-hydroxypropyl]-4,5-dihydro-1H-1,2,4-triazol-1-yl}methyl)-1H-1,2,4-triazol-1-yl]-N-[2,2-difluorocyclopropyl]pyridine-2-carboxamide], in test [1], the half-inhibitory concentration (IC50) came to 130 nM and the “ratio IC50 hV2/hV1a” value worked out at 30.4. In addition, in test [2], the IC50 came out at 3950 nM.

In the case of `NC(=O)[C@@H]1CC(F)(F)CN1C(=O)c1ncccc1-n1cnc(Cn2nc(-c3ccc(Cl)cc3)n(C[C@@H](O)C(F)(F)F)c2=O)n1` [Example 461, 1-({3-[3-({3-(4-Chlorophenyl)-5-oxo-4-[(2R)-3,3,3-trifluoro-2-hydroxypropyl]-4,5-dihydro-1H-1,2,4-triazol-1-yl}methyl)-1H-1,2,4-triazol-1-yl]pyridin-2-yl}carbonyl)-4,4-difluoro-L-prolinamide], in test [1], the IC50 came to 1100 nM and the “ratio IC50 hV2/hV1a” value was determined as 20.0. In addition, the IC50 in test [2] amounted to 22000 nM.

For the molecule `O=C(NC1CC1F)c1ncccc1-n1cnc(Cn2nc(-c3ccc(Cl)cc3)n(C[C@@H](O)C(F)(F)F)c2=O)n1` (stereo partly drawn) [Example 462, 3-[3-({3-(4-Chlorophenyl)-5-oxo-4-[(2R)-3,3,3-trifluoro-2-hydroxypropyl]-4,5-dihydro-1H-1,2,4-triazol-1-yl}methyl)-1H-1,2,4-triazol-1-yl]-N-[2-fluorocyclopropyl]pyridine-2-carboxamide], in test [1], the IC50 came out at 97 nM and the “ratio IC50 hV2/hV1a” value was determined as 61.3. For the same molecule, in test [2], the concentration for half-maximal inhibition (IC50) was 5950 nM.

Take `O=C(c1ncccc1-n1cnc(Cn2nc(-c3ccc(Cl)cc3)n(C[C@@H](O)C(F)(F)F)c2=O)n1)N1CCC(F)(F)C1` [Example 463, 5-(4-Chlorophenyl)-2-[(1-{2-[(3,3-difluoropyrrolidin-1-yl)carbonyl]pyridin-3-yl}-1H-1,2,4-triazol-3-yl)methyl]-4-[(2R)-3,3,3-trifluoro-2-hydroxypropyl]-2,4-dihydro-3H-1,2,4-triazol-3-one]: the IC50 in test [1] stood at 235 nM; in test [2], 32000 nM. The “ratio IC50 hV2/hV1a” value in test [1] came to 136.2.

Consider `CC1(C)CN(C(=O)c2ncccc2-n2cnc(Cn3nc(-c4ccc(Cl)cc4)n(C[C@@H](O)C(F)(F)F)c3=O)n2)CCO1` [Example 464, 5-(4-Chlorophenyl)-2-[(1-{2-[(2,2-dimethylmorpholin-4-yl)carbonyl]pyridin-3-yl}-1H-1,2,4-triazol-3-yl)methyl]-4-[(2R)-3,3,3-trifluoro-2-hydroxypropyl]-2,4-dihydro-3H-1,2,4-triazol-3-one], for which the IC50 in test [1] was found to be 60 nM; in test [2], 32000 nM. The “ratio IC50 hV2/hV1a” value in test [1] stood at 533.3.
